# Source: patent US9856511B2, “Protease deubiquitinating inhibitor screening” (priority 2011, dated 2018)
# Experiments:
# [1] = system: Lewis Lung Carcinoma (LLC); assay: Lewis Lung Carcinoma (LLC) syngenic tumors in C57BL/6J mice; format: in vivo; conditions: 5 mg/kg i.p., day on/2 day off schedule; p=<0.01
# Procedure: In order to investigate the effect of b-AP15 on tumor growth in vivo, the compound was administered to mice bearing either a human tumor or mouse xenografts. FaDu head and neck carcinoma were chosen as a SCID mouse xenograft both as a model for a p53mut tumor and since this model is suitable for studies using circulating cell death biomarkers (30). Significant inhibition of FaDu tumor growth was observed following daily treatment with b-AP15 (treated/control tumor volume, T/C=0.4, p=<0.001). Similarly b-AP15 (day on/2 day off schedule) inhibited tumor growth in C57BL/6J mice bearing lung carcinomas (T/C=0.16, p=<0.01). […] To examine whether b-AP15 promotes tumor cell death in vivo, plasma levels of cytokeratin-18 (CK18) were analyzed. […] To investigate the ability of b-AP15 to inhibit proteasome deubiquitination in vivo, accumulation of poly-ubiquitin conjugates was analyzed by means of antibodies specific for K48 linked polyubiquitin chains. Histological analysis of treated tumors confirmed the accumulation of poly-ubiquitin conjugates. […]
# Animal experiments were conducted in full accordance with Swedish governmental statutory regulations on animal welfare under permission from local ethical committees. […] All mice were monitored and weighed daily. […] After injection, tumor growth was measured daily with calipers and the tumor volume calculated by the formula L=W^2=0.44. […]
# [2] = system: isogenic clones of HCT116 colon cancer cells; assay: Apoptosis in isogenic HCT116 clones, caspase cleaved cytokeratin-18 ELISA; format: cell-based
# Procedure: The increase in sub G1 DNA content is associated with (i) activation of the apoptosis mediator caspase-3 and (ii) with cleavage of the caspase substrates poly-ADP ribose polymerase (PARP) and cytokeratin-18. […] Apoptosis induction by bortezomib is dependent on p53 and inhibited by overexpression of the Bcl-2 protein (16,17).
# For determination of apoptosis parental HCT-116 p53+/+ cells were treated with the increasing doses of bortezomib or b-AP15 for 24 h. […] HCT-116 cells were seeded in 96-well microtiter plates at 10,000 cells per well and incubated overnight. Cells were treated with indicated drug for 24 h. At the end of the incubation period, NP40 was added to the tissue culture medium to 0.1% and 25 μl of the content of each well was assayed using the M30-Apoptosense® ELISA as previously described (43). Cell viability was determined by measuring acid phosphatase activity or using the FMCA method (44). For the acid phosphatase activity cells were seeded at 5000 cells per well in 96-well culture plates and incubated for 12 h at 37° C. Compounds were added to the cells in growth media and incubated for 72 h at 37° C. Cells were washed with 200 μl warm PBS. […] Absorbance was measured at 405 nm.
# b-AP15 inhibits degradation of ubiquitin-tagged YFP in a proteasome reporter cell line (FIG. 1a). Levels of ^UbG76V-YFP accumulation were determined by flow cytometry and immunoblotting; immunoblot of ubiquitin conjugation in HCT-116 cells treated with b-AP15 (1 μM) or bortezomib (100 nM) (FIG. 1b). […] Immunoblot of ODC-1 levels in HCT-116 cells following treatment with bortezomib ([…] or b-Ap15 (1 μM) (FIG. 1d); values represent quantified optical density units of ODC-1 normalized to β-actin. Cell cycle profiles of b-AP15 treated HCT-116 cells (FIG. 1e); cells were analyzed by propidium iodide staining and flow cytometry. Levels of caspase activity in isogenic HCT-116 cells as determined by ELISA for caspase cleaved cytokeratin-18 (CK18-Asp398) following treatment with bortezomib (100 nM) or b-AP15 (1 μM) (**′P=0.01, ***′P=0.001) (FIG. 1f). […]
structure (smiles),measurement,setting,value
C=CC(=O)N1C/C(=C\c2ccc([N+](=O)[O-])cc2)C(=O)/C(=C/c2ccc([N+](=O)[O-])cc2)C1 [b-AP15],"treated/control tumor volume, T/C",[1],0.16
same,apoptosis: effect of genetic disruption of BAX or PUMA,[2],does not affect b-AP15 sensitivity
same,caspase cleavage of cytokeratin-18: effect of p53 disruption or Bcl-2 overexpression,[2],not affected by genetic disruption of p53 or overexpression of Bcl-2
